Experiments:
[1] = tested on: mouse DRG neurons; assay: Single-cell calcium imaging (Fura-2/AM) of isolated DRG neurons; format: cell-based
Protocol: DRG neurons were isolated from young C57 BL/6 mice (4–5 weeks). The sections of thoracic and lumbar DRG neurons were rapidly isolated in calcium and magnesium-free PBS with low temperature conditions (ice-bath environment). The isolated tissues were cut into pieces with scissor and incubated for 30 min with 0.1% collagenase and 0.025% trypsin which were diluted by DMEM-F12 at 37 °C. After digestion, neurons were gently dissociated using Pasteur pipettes and then plated onto poly-D-lysine pre-coated glass cover slips. DRG neurons were cultured for 24 h before use.
Calcium influx signals were monitored using the ratio metric fluorescent indicator dye Fura-2/AM at room temperature (23–25 °C). Cells were incubated with 2 μM Fura-2/AM, which was generated by diluting the stock solution with normal external solution, for 30 min at 37 °C. […] The maximum excitation wave length of Fura-2/AM was changed to 340 nm from 380 nm when combined with calcium ions. Fura-2/AM was excited at 340 and 380 nm with a rapid switching monochromator obtained from TILL Photonics, and the mean fluorescence intensity ratios (F340/F380) reflected real-time changes in the concentration of intracellular free calcium ions. The external solution used in the DRG whole-cell patch-clamp recordings was also used for calcium imaging. Solutions were switched using a gravity-fed continuous focal perfusion system.

[2] = target: T1, TRPV4 (Homo sapiens, UniProt Q9HBA0); assay: Calcium fluorescence signal, HEK293 cells overexpressing TRPV4; format: cell-based; details: 10 μM
T1 construct: expressed in transfected cells; host or cells: HEK293
T1 sequence (Q9HBA0 whole entry, species assumed): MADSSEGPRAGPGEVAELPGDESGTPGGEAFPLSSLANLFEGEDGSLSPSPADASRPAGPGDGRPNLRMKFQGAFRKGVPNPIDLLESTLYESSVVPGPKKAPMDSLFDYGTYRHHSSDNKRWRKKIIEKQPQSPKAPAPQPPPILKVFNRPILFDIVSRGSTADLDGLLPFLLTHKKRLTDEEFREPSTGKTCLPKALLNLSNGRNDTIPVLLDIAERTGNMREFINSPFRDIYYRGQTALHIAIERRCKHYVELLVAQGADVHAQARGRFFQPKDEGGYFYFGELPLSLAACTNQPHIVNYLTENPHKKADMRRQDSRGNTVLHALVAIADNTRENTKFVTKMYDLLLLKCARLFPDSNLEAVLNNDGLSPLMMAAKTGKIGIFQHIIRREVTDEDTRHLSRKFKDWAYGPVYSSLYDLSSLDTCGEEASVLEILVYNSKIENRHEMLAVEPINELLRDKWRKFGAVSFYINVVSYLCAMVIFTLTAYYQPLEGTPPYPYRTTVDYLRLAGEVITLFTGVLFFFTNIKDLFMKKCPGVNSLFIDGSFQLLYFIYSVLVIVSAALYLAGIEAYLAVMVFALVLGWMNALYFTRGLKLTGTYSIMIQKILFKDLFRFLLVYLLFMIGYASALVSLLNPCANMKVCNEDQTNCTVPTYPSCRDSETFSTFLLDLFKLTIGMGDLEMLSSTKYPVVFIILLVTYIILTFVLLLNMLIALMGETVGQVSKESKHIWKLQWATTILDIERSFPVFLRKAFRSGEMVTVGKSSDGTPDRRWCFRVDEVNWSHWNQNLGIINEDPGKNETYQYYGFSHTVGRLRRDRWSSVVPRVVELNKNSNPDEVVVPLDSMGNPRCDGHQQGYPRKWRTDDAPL
Protocol: Figure S3. Specificity of malathion for TRPA1 channels. (A-F) Time course of the fluorescence signal induced by malathion (Mala, 10 μM) and the indicated positive agonists (10 μM) in HEK293 cells overexpressing TRPV1 (A), TRPV3 (B), TRPV4 (C), TRPM8 (D), TRPC4 (E) and TRPC5 (F) channels. The fluorescence signals are scaled as F/F0. EC indicates external solution. […]
cells for each tested TRP channel. All bars are presented as the mean ± SEM. […]

Question: Which “[Ca2+]i response of DRG neurons from Trpa1−/− mice” value ([1]; Trpa1−/− neurons) does the source give for `CCOC(=O)CC(SP(=S)(OC)OC)C(=O)OCC` (stereo not drawn) [malathion, S-[1,2-bis (ethoxycarbonyl)ethyl] O, O-dimethyl phosphorodithioate] here?
Answer: thoroughly unresponsive

Question: And the “neurons displaying a robust increase in [Ca2+]i” value ([1]; wild-type small-diameter neurons, sequential application of AITC and malathion, 197/451)?
Answer: ~ 44%

Question: And the “activation of TRPV4” value [2]?
Answer: could not activate
